Source: US8003649B2 (AstraZeneca AB, priority 2007, dated 2011)

The compounds below were run against T1, Androgen Receptor (AR) (Homo sapiens, UniProt P10275, T878A) (assay: LNCaP Androgen Receptor Down-regulation Cell Assay (immunofluorescence end point)). Conditions: LNCaP prostate carcinoma cells, compound incubation 20-22 hours, 50% reduction of the AR signal; read-out: Androgen Receptor Down-regulation Assay (a) IC50/μM.
T1 construct: cell based immuno-fluorescence assay using the LNCaP prostate epithelial cell line; endogenous in cells; host or cells: LNCaP clone FGC (ATCC CRL-1740)
T1 sequence (P10275 1-920 T878A): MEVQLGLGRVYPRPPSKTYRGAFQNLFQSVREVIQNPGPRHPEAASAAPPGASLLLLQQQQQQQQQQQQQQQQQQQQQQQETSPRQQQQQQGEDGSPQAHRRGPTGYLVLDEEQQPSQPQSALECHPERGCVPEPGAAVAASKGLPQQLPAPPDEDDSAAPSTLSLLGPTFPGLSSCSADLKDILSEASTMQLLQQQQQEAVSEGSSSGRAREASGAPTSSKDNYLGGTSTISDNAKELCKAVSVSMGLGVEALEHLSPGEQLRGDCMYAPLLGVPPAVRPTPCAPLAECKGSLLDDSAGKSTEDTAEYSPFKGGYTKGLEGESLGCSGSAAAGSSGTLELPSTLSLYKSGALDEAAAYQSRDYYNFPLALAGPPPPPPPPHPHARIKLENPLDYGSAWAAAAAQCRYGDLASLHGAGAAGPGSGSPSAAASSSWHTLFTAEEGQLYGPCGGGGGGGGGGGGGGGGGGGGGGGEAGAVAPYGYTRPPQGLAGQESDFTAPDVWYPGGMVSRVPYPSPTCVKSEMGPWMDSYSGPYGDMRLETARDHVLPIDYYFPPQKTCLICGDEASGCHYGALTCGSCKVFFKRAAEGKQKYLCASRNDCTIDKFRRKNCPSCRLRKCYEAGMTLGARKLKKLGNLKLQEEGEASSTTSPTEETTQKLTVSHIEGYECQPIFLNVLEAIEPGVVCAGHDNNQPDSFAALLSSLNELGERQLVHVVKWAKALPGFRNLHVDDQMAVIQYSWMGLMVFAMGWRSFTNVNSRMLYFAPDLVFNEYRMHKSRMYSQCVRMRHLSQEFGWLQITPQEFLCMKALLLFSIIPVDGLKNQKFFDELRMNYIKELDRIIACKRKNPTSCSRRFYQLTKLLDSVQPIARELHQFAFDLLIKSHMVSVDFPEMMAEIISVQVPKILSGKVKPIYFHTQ
Format: cell-based
Procedure: The ability of compounds to reduce Androgen Receptor (AR) numbers was assessed in a cell based immuno-fluorescence assay using the LNCaP prostate epithelial cell line.
a) LNCaP Androgen Receptor Down-regulation Cell Assay
A 5 ml volume of Growth Medium was added to each flask (as above except that 5% (v/v) charcoal stripped FBS (HyClone Code no. SH30068.03) was included instead of 10% (v/v) FBS). Cells were syringed at least twice using a sterile 18G×1.5″ (1.2×40 mm) broad gauge needle and cell density was measured using a haemocytometer.
Test data reported herein was generated using two different compounds preparation and dosing methods. In method (1) a 10 mM compound stock solution in 100% (v/v) DMSO was serially diluted in 4-fold steps in 100% (v/v) DMSO using a Thermo Scientific Matrix SerialMate. The diluted compounds were then further diluted 1 in 30 in assay media using a Thermo Scientific Matrix PlateMate and a 10 μl aliquot of this dilution was dosed to cells manually using a multi-channel pipette. In method (2) starting with a 10 mM compound stock solution, the Labcyte Echo 550 was used to generate a compound concentration response set diluted in 30 μl of assay media. The Echo 550 is a liquid handler that uses acoustic technology to perform direct microplate-to-microplate transfers of DMSO compound solutions. The system can be programmed to transfer volumes as low as […] in multiple increments between microplates and in so doing generates a serial dilution of compound which is then back-filled to normalise the DMSO concentration across the dilution range. A 10 μl volume of diluted compound is then dosed to cells using a Thermo Scientific Matrix PlateMate.
Plates were incubated overnight at 37° C., 5% CO2. Wells were then dosed with compound prepared by one of the 2 methods above and further incubated for 20-22 hours at 37° C., 5% CO2. […] This fixative solution was removed and cells were washed with 250 μl of PBS/0.05% (v/v) Tween 20 (PBST) using an automated plate washer. This process was then repeated twice more.
Immunostaining was performed at room temperature. Cells were permeabilised by the addition of 35 μl of PBS containing 0.5% Tween 20 and incubated for 1 hour at room temperature. Permeabilisation solution was removed and cells were washed with 250 μl of PBST using an automated plate washer. This process was then repeated twice more. 35 μl of Blocking Solution (PBST containing 3% (w/v) Marvel dried skimmed milk (Nestle)) was added to each well and plates were incubated at room temperature for a minimum of 1 hour. […] Then this primary antibody solution was removed from the wells followed by 3×100 μl PBST washes using a plate washer. […] Henceforth, wherever possible, plates were protected from light exposure. The plates were incubated for 1 hour and then the secondary antibody solution was removed from the wells followed by 3×100 ul PBST washes using a plate washer. Then 50 μl of PBST was added to each well and plates were covered with a black plate seal and stored at 4° C. before being read. Plates were read within six hours of completing the immunostaining.
The Green Fluorescent AR-associated signal in each well was measured using an Acumen Explorer HTS Reader (TTP Labtech Ltd., Cambridge). […] The instrument is a laser-scanning fluorescence microplate cytometer which samples the well at regular intervals and uses threshold algorithms to identify all fluorescent intensities above the solution background without the need to generate and analyse an image. These fluorescent objects can be quantified and provide a measure of the AR levels in cells. Fluorescence dose response data obtained with each compound was exported into a suitable software package (such as Origin) to perform curve fitting analysis. Down-regulation of AR levels was expressed as an IC50 value.

| SMILES | DC50 [µM] |
| --- | --- |
| FC(F)C(F)(F)c1nnc2ccc(N3CCN(C(c4ccccc4)c4ccccc4)CC3)nn12 [Example 1, 6-(4-benzhydrylpiperazin-1-yl)-3-(1,1,2,2-tetrafluoroethyl)-[1,2,4]triazolo[4,3-b]pyridazine] | 3.4 |
| FC(F)C(F)(F)c1nnc2ccc(N3CCCN(Cc4ccccc4)CC3)nn12 [Example 2, 6-(4-benzyl-1,4-diazepan-1-yl)-3-(1,1,2,2-tetrafluoroethyl)-[1,2,4]triazolo[4,3-b]pyridazine] | 8.3 |
| FC(F)c1nnc2ccc(N3CCN(C(c4ccccc4)c4ccccc4)CC3)nn12 [Example 5, 6-(4-benzhydrylpiperazin-1-yl)-3-(difluoromethyl)-[1,2,4]triazolo[4,3-b]pyridazine] | 1.6 |
| FC(F)c1nnc2ccc(N3CCCN(Cc4ccccc4)CC3)nn12 [Example 6, 6-(4-benzyl-1,4-diazepan-1-yl)-3-(difluoromethyl)-[1,2,4]triazolo[4,3-b]pyridazine] | 7.5 |
| Clc1nnc2ccc(N3CCN(C(c4ccccc4)c4ccccc4)CC3)nn12 [Example 8, 6-(4-benzhydrylpiperazin-1-yl)-3-chloro-[1,2,4]triazolo[4,3-b]pyridazine] | 1.7 |
| CSc1nnc2ccc(N3CCN(C(c4ccccc4)c4ccccc4)CC3)nn12 [Example 9, 6-(4-benzhydrylpiperazin-1-yl)-3-methylsulfanyl-[1,2,4]triazolo[4,3-b]pyridazine] | 1.7 |
| FC(F)(F)c1nnc2ccc(N3CCN(c4ccc(Br)cn4)CC3)nn12 [Example 11, 6-[4-(5-bromopyridin-2-yl)piperazin-1-yl]-3-(trifluoromethyl)-[1,2,4]triazolo[4,3-b]pyridazine] | 2.5 |
| Cc1cc(N2CCN(Cc3ccc(C#N)cc3)CC2)nn2c(C(F)(F)F)nnc12 [Example 12, 4-((4-(8-Methyl-3-(trifluoromethyl)-[1,2,4]triazolo[4,3-b]pyridazin-6-yl)piperazin-1-yl)methyl)benzonitrile] | 4.3 |
| Cc1cc2nnc(C(F)(F)F)n2nc1N1CCN(Cc2ccc(C#N)cc2)CC1 [Example 13, 4-((4-(7-Methyl-3-(trifluoromethyl)-[1,2,4]triazolo[4,3-b]pyridazin-6-yl)piperazin-1-yl)methyl)benzonitrile] | 8.4 |
| FC(F)(F)c1nnc2ccc(N3CCN(Cc4ccc(Cl)cc4)CC3)nn12 [Example 14, 6-[4-[(4-chlorophenyl)methyl]piperazin-1-yl]-3-(trifluoromethyl)-[1,2,4]triazolo[4,3-b]pyridazine] | 0.69 |
| COc1ccc(CN2CCN(c3ccc4nnc(C(F)(F)F)n4n3)CC2)cc1 [Example 15, 6-[4-[(4-methoxyphenyl)methyl]piperazin-1-yl]-3-(trifluoromethyl)-[1,2,4]triazolo[4,3-b]pyridazine] | 2.5 |

The remaining lines, values ahead:

| DC50 [µM] | SMILES |
| --- | --- |
| 0.77 | Cc1cccc(C)c1N1CCN(c2ccc3nnc(C(F)(F)F)n3n2)CC1 [Example 16, 6-[4-(2,6-dimethylphenyl)piperazin-1-yl]-3-(trifluoromethyl)-[1,2,4]triazolo[4,3-b]pyridazine] |
| 2.5 | CC(=O)c1ccc(N2CCN(c3ccc4nnc(C(F)(F)F)n4n3)CC2)cc1 [Example 17, 1-[4-[4-[3-(trifluoromethyl)-[1,2,4]triazolo[4,3-b]pyridazin-6-yl]piperazin-1-yl]phenyl]ethanone] |
| 0.52 | FC(F)(F)c1nnc2ccc(N3CCN(c4c(Cl)cncc4Cl)CC3)nn12 [Example 19, 6-[4-(3,5-dichloropyridin-4-yl)piperazin-1-yl]-3-(trifluoromethyl)-[1,2,4]triazolo[4,3-b]pyridazine] |
| 1.8 | O=C1NCN(c2ccccc2)C12CCN(c1ccc3nnc(C(F)(F)F)n3n1)CC2 [Example 20, 1-phenyl-8-[3-(trifluoromethyl)-[1,2,4]triazolo[4,3-b]pyridazin-6-yl]-1,3,8-triazaspiro[4.5]decan-4-one] |
| 0.27 | O=[N+]([O-])c1ccc(N2CCN(c3ccc4nnc(C(F)(F)F)n4n3)CC2)cc1 [Example 21, 6-[4-(4-nitrophenyl)piperazin-1-yl]-3-(trifluoromethyl)-[1,2,4]triazolo[4,3-b]pyridazine] |
| 1.4 | FC(F)(F)c1nnc2ccc(N3CCN(C(c4ccccc4)c4ccccc4)CC3)nn12 [Example 22, 6-(4-benzhydrylpiperazin-1-yl)-3-(trifluoromethyl)-[1,2,4]triazolo[4,3-b]pyridazine] |
| 0.45 | FC(F)(F)c1nnc2ccc(N3CCN(CCc4ccccc4)CC3)nn12 [Example 23, 6-(4-phenethylpiperazin-1-yl)-3-(trifluoromethyl)-[1,2,4]triazolo[4,3-b]pyridazine] |
| > 26 | O=C(CN1CCN(c2ccc3nnc(C(F)(F)F)n3n2)CC1)N1CCCCC1 [Example 24, 1-piperidin-1-yl-2-[4-[3-(trifluoromethyl)-[1,2,4]triazolo[4,3-b]pyridazin-6-yl]piperazin-1-yl]ethanone] |
| 1.1 | COc1ccc(C(c2ccccc2)N2CCN(c3ccc4nnc(C(F)(F)F)n4n3)CC2)cc1 (centres unmarked) [Example 25, 6-[4-[(4-methoxyphenyl)-phenylmethyl]piperazin-1-yl]-3-(trifluoromethyl)-[1,2,4]triazolo[4,3-b]pyridazine] |
| 1 | FC(F)(F)c1ccc(C(c2ccccc2)N2CCN(c3ccc4nnc(C(F)(F)F)n4n3)CC2)cc1 (centres unmarked) [Example 26, 6-[4-[phenyl-[4-(trifluoromethyl)phenyl]methyl]piperazin-1-yl]-3-(trifluoromethyl)-[1,2,4]triazolo[4,3-b]pyridazine] |
| 2.8 | Cc1cc(NCC2CC[C@@H]3CN(c4ccc5nnc(C(F)(F)F)n5n4)CCN3C2)c2ccccc2n1 (stereo partly drawn) [Example 28, N-[[(9aR)-2-[3-(trifluoromethyl)-[1,2,4]triazolo[4,3-b]pyridazin-6-yl]-1,3,4,6,7,8,9,9a-octahydropyrido[1,6-a]pyrazin-7-yl]methyl]-2-methylquinolin-4-amine] |
| 4.2 | Fc1ccc(N2CCN(c3ccc4nnc(C(F)(F)F)n4n3)CC2)c(F)c1 [Example 29, 6-[4-(2,4-difluorophenyl)piperazin-1-yl]-3-(trifluoromethyl)-[1,2,4]triazolo[4,3-b]pyridazine] |
